Data on seven compounds can be found in patent US8664407B2, “Chemical linkers with single amino acids and conjugates thereof” (Medarex, LLC, priority 2007, dated 2014).

The structures appear in SMILES notation.

Series [1] deals with T1, bovine spleen cathepsin B (Bos taurus, UniProt P07688).
T1 construct: bovine spleen cathepsin B (Sigma product code C-6286) was prepared by dissolving lyophilized solid; purchased Sigma C-6286; host or cells: bovine spleen (tissue-derived)
As to the kind of experiment: Cathepsin B mediated cleavage of single amino acid linkers (RP-HPLC, A340). The following applies: cysteine modified compound, activated cathepsin B, pH 5.0, 37° C. In kind it is biochemical. As for the experimental part: (§1) A panel of single amino acid compounds, each differing with respect to amino acid composition but of otherwise similar structure, was assayed for cathepsin B activity. The following compounds were tested: compounds A,B,C,D,E and F. The appearance of cathepsin B-mediated products was monitored by application to RP-HPLC with quantitation of drug products by their absorbance at 340 nm.
(§2) Cathepsin B Enzyme Assay: A stock solution of bovine spleen cathepsin B (Sigma product code C-6286) was prepared by dissolving lyophilized solid (6 mg at 56% protein) in 25 mM sodium acetate/1 mM EDTA pH 5.0 buffer (10 mL). Enzyme activation was accomplished by mixing the stock solution (50 uL) with activation buffer (100 ul) comprised of 30 mM DTT/15 mM EDTA, followed by incubation at room temperature for 15 minutes. The activated cathepsin B was diluted 1:1 with a solution of 25 mM sodium acetate/1 mM EDTA, pH 5.0 prior to use. To assay for drug release, cysteine modified compound (4 uL of 2.5 mM solution in DMSO) was added to 25 mM sodium acetate/1 mM EDTA pH 5.0 buffer (86 uL) and activated cathepsin B (10 uL at 3.6 U/mL). Samples were incubated at 37° C. for appropriate time points and stopped with methanol (100 uL).
(§3) Compounds samples (40 uL) were applied to a Waters 2795 HPLC system fitted with a reverse phase column (Waters Nova-pak C18, 3.9×150 mm column, product code WAT086344). Sample chromatography was accomplished using a dual mobile phase system comprised of water/0.1% TFA (A buffer) and acetonitrile/0.1% TFA (B buffer) with a gradient elution of 10-100% B buffer over 20 min at 1.0 mL/min. compounds were detected by its absorbance at 340 nm (A340).

In the next series the test system is 786-O. As to the kind of experiment: In vivo study: 786-O tumor xenograft, toxin-conjugated anti-CD70 HuMAb 2H5. The settings on record: 0.03 μmol toxin dosage, IP, dosed on Day 0; CD70.1 antibody conjugates; 786-O tumors in male CB17.SCID mice. As for the experimental part:
786-O (ATCC Accession No. CRL-1932) cells were expanded in vitro using standard laboratory procedures. Male CB17.SCID mice (Taconic, Hudson, N.Y.) between 6-8 weeks of age were implanted subcutaneously in the right flank with 2.5 million 786-O in 0.2 ml of PBS/Matrigel (1:1) per mouse. Mice were weighed and measured for tumors three dimensionally using an electronic caliper twice weekly after implantation. Tumor volumes were calculated as height×width×length. Mice with tumors averaging 200 mm^3 were randomized into treatment groups. The mice were dosed intraperitoneally with PBS vehicle, toxin-conjugated isotype control antibody or toxin-conjugated anti-CD70 HuMAb 2H5 on Day 0. Each group contained 8 mice.
FIGS. 1, 2, 5, and 6 show the mean tumor volume versus days past dosing and FIGS. 3, 4, 7, and 8 show the median tumor volume versus days past dosing (0.03 μmol—FIGS. 1, 3, 5, and 7; 0.005 μmol—FIGS. 2, 4, 6, and 8).

A further series deals with T2, cathepsin B (Bos taurus, UniProt P07688).
T2 construct: bovine spleen cathepsin B (Sigma product code C-6286) was prepared by dissolving lyophilized solid; purchased Sigma C-6286; host or cells: bovine spleen (tissue-derived)
In words: Cathepsin B mediated cleavage of single amino acid linkers (RP-HPLC, A340). In kind it is biochemical, bovine. The settings on record: bovine, activated bovine spleen cathepsin B (isolated enzyme), cysteine modified compound, pH 5.0, 37° C., read-out: Approx. substrate half-life (converted). The protocol: as §1, §2, §3

For `CN1CCN(C(=O)Oc2cc3c(c4ccccc24)[C@H](CCl)CN3C(=O)c2cc3cc(NC(=O)c4ccc(NC(=O)[C@H](CCC(=O)O)NC(=O)CCCCCN5C(=O)C=CC5=O)cc4)ccc3[nH]2)CC1` [Compound F], the “Cathepsin B cleavage” value in series [1] is recorded as “No”. The “Efficacy (tumor volume versus days past dosing), descending order” value with 786-O is “Compound E>Compound F>Compound A>Compound C, Compound D>Compound B>Compound G”.
For the compound `CN1CCN(C(=O)Oc2cc3c(c4ccccc24)[C@H](CCl)CN3C(=O)c2cc3cc(NC(=O)c4ccc(NC(=O)[C@H](CCCCN)NC(=O)CCCCCN5C(=O)C=CC5=O)cc4)ccc3[nH]2)CC1` [Compound E], the half-life at 100 µM at cathepsin B was approximately 240 min. Besides, the “Cathepsin B cleavage” value in series [1] was “Yes”. Also, in the series on 786-O, the “Efficacy (tumor volume versus days past dosing), descending order” value is on record as “Compound E>Compound F>Compound A>Compound C, Compound D>Compound B>Compound G”.
Regarding `CN1CCN(C(=O)Oc2cc3c(c4ccccc24)[C@H](CCl)CN3C(=O)c2cc3cc(NC(=O)c4ccc(NC(=O)[C@H](CCCNC(N)=O)NC(=O)CCCCCN5C(=O)C=CC5=O)cc4)ccc3[nH]2)CC1` [Compound A], on cathepsin B, the half-life at 100 µM was approximately 1440 min. For the same compound, the results for the “Cathepsin B cleavage” value in series [1] and in series [1] (listed as compound A) were “Yes” and “cleaved by cathepsin B”, respectively. In addition, the “Efficacy (tumor volume versus days past dosing), descending order” value in the series on 786-O is recorded as “Compound E>Compound F>Compound A>Compound C, Compound D>Compound B>Compound G”.
As to `CN1CCN(C(=O)Oc2cc3c(c4ccccc24)[C@H](CCl)CN3C(=O)c2cc3cc(NC(=O)c4ccc(NC(=O)[C@H](CO)NC(=O)CCCN5C(=O)C=CC5=O)cc4)ccc3[nH]2)CC1` [Compound D], the “Cathepsin B cleavage” value in series [1] is “No”; in series [1] (listed as compound D), “cleaved by cathepsin B”. Further, the “Efficacy (tumor volume versus days past dosing), descending order” value in the series with 786-O is on record as “Compound E>Compound F>Compound A>Compound C, Compound D>Compound B>Compound G”.
For the compound `CN1CCN(C(=O)Oc2cc3c(c4ccccc24)[C@H](CCl)CN3C(=O)c2cc3cc(NC(=O)c4ccc(NC(=O)[C@H](CCCNC(N)=O)NCCNC(=O)CCCCCN5C(=O)C=CC5=O)cc4)ccc3[nH]2)CC1` [Compound B], the “Cathepsin B cleavage” value in series [1] was “No”. Besides, the “Efficacy (tumor volume versus days past dosing), descending order” value with 786-O is given as “Compound E>Compound F>Compound A>Compound C, Compound D>Compound B>Compound G”.
Regarding `CN1CCN(C(=O)Oc2cc3c(c4ccccc24)[C@H](CCl)CN3C(=O)c2cc3cc(NC(=O)c4ccc(NCC(=O)NCCNC(=O)CCCN5C(=O)C=CC5=O)cc4)ccc3[nH]2)CC1` [Compound G], the “Efficacy (tumor volume versus days past dosing), descending order” value with 786-O is listed as “Compound E>Compound F>Compound A>Compound C, Compound D>Compound B>Compound G”.
`CN1CCN(C(=O)Oc2cc3c(c4ccccc24)[C@H](CCl)CN3C(=O)c2cc3c4c(ccc3[nH]2)N(C(=O)c2ccc(NC(=O)[C@H](CCCNC(N)=O)NC(=O)CCCCCN3C(=O)C=CC3=O)cc2)CC4)CC1` [Compound C]: the “Cathepsin B cleavage” value in series [1] is given as “No”. Moreover, the “Efficacy (tumor volume versus days past dosing), descending order” value in the series with 786-O is given as “Compound E>Compound F>Compound A>Compound C, Compound D>Compound B>Compound G”.

By half-life is commonly meant how long it takes for the measured level to halve.
